# Results from PMC9848300, “Discovery of novel enasidenib analogues targeting inhibition of mutant isocitrate dehydrogenase 2 as antileukaemic agents” (Journal of Enzyme Inhibition and Medicinal Chemistry, 2023).
# Where two headings read alike, the source gives them in different places.
# Tests used:
# HCT-116 = test: NCI 60 antitumor screening (single dose / five doses); type: cell-based; settings: Homo sapiens
# 786-0 = test: as above; type: cell-based; settings: Homo sapiens
# [1] = test system: 60 human subpanel cancer cell lines; test: NCI 60 antitumor screening, mean over the panel (single dose); type: cell-based; settings: mean over 60 cancer cell lines, single dose 10 μM
# Summary of the method: (§1)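 GI% derived as 100 − G% from triplicate growth measurements in the NCI 60 human tumour panel, compound 10 μM, single dose, per NCI protocol.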
# EKVX = test: NCI 60 antitumor screening (single dose / five doses); type: cell-based; settings: Homo sapiens, read-out: Growth inhibition percentage (GI %)
# SW-620 = test: as above; type: cell-based, human; settings: Homo sapiens
# MDA-MB-468 = test: as above; type: cell-based; settings: Homo sapiens
# SK-MEL-2 = test: as above; type: cell-based; settings: Homo sapiens
# MDA-MB-435 = test: as above; type: cell-based; settings: Homo sapiens
# HCT-15 = test: as above; type: cell-based; settings: Homo sapiens
# SF-539 = test: as above; type: cell-based; settings: Homo sapiens
# SF-295 = test: as above; type: cell-based; settings: Homo sapiens
# RXF 393 = test: as above; type: cell-based; settings: Homo sapiens
# IGROV1 = test: as above; type: cell-based; settings: Homo sapiens
# RPMI-8226 = test: as above; type: cell-based; settings: Homo sapiens
# TK-10 = test: NCI 60 antitumor screening (single dose); type: cell-based; settings: Homo sapiens; TK-10 (renal cancer), single dose 10 μM; read-out: Growth inhibition percentage (GI %)
# Summary of the method: (§2)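 Assessment used the first tier of the NCI 60 screen, one dose of 10 μM per compound. Triplicate experiments gave percent growth of treated cells. Inhibition was then derived as 100 − G%.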
# SNB-19 = test: NCI 60 antitumor screening (single dose); type: cell-based; settings: Homo sapiens; SNB-19 (CNS cancer), single dose 10 μM; read-out: Growth inhibition percentage (GI %)
# Summary of the method: as §2
# HCC-2998 = test: NCI 60 antitumor screening (single dose); type: cell-based; settings: Homo sapiens; HCC-2998 (colon cancer), single dose 10 μM; read-out: Growth inhibition percentage (GI %)
# Summary of the method: as §1
# LOX IMVI = test: NCI 60 antitumor screening (single dose / five doses); type: cell-based; settings: Homo sapiens, read-out: Growth inhibition percentage (GI %)
# HOP-92 = test: as above; type: cell-based; settings: Homo sapiens
# BT-549 = test: as above; type: cell-based; settings: Homo sapiens
# COLO 205 = test: as above; type: cell-based; settings: Homo sapiens
# CCRF-CEM = test: as above; type: cell-based; settings: Homo sapiens, read-out: Growth inhibition percentage (GI %)
# UACC-62 = test: as above; type: cell-based; settings: Homo sapiens
# MDA-MB-231/ATCC = test: as above; type: cell-based; settings: Homo sapiens
# UO-31 = test: as above; type: cell-based; settings: Homo sapiens
# NCI/ADR-RES = test: as above; type: cell-based; settings: Homo sapiens, read-out: Growth inhibition percentage (GI %)
# SR = test: as above; type: cell-based; settings: Homo sapiens, read-out: Growth inhibition percentage (GI %)
# A498 = test: as above; type: cell-based; settings: Homo sapiens
structure (smiles),measurement,setting,value
"Fc1cccc(/C=N/Nc2nc(N/N=C/c3cccc(F)c3)nc(N3CCOCC3)n2)c1 [compound 6e, 2,4-Bis[(E)-2-[(3-Fluorophenyl)methylidene]hydrazin-1-yl]-6-(morpholin-4-yl)-1,3,5-triazine]",inhibition at 10 µM,"HCT-116; HCT-116 (colon cancer), single dose 10 μM, read-out: Growth inhibition percentage (GI %)",24.6%
same,inhibition at 10 µM,"786-0; 786-0, 786-0 (renal cancer), single dose 10 μM, read-out: Growth inhibition percentage (GI %)",54%
same,Mean GI %,[1],15.60%
same,inhibition at 10 µM,"EKVX; EKVX (non-small cell lung cancer), single dose 10 μM",10.9%
same,inhibition at 10 µM,"SW-620; SW-620 (colon cancer), single dose 10 μM, read-out: Growth inhibition percentage (GI %)",34%
same,inhibition at 10 µM,"MDA-MB-468; MDA-MB-468 (breast cancer), single dose 10 μM, read-out: Growth inhibition percentage (GI %)",11.5%
same,inhibition at 10 µM,"SK-MEL-2; SK-MEL-2 (melanoma), single dose 10 μM, read-out: Growth inhibition percentage (GI %)",2.51%
same,inhibition at 10 µM,"MDA-MB-435; MDA-MB-435 (melanoma), single dose 10 μM, read-out: Growth inhibition percentage (GI %)",1.89%
same,inhibition at 10 µM,"HCT-15; HCT-15 (colon cancer), single dose 10 μM, read-out: Growth inhibition percentage (GI %)",52.5%
same,inhibition at 10 µM,"SF-539; SF-539 (CNS cancer), single dose 10 μM, read-out: Growth inhibition percentage (GI %)",12.6%
same,inhibition at 10 µM,"SF-295; SF-295 (CNS cancer), single dose 10 μM, read-out: Growth inhibition percentage (GI %)",-8.45%
same,inhibition at 10 µM,"RXF 393; RXF 393 (renal cancer), single dose 10 μM, read-out: Growth inhibition percentage (GI %)",79.3%
same,inhibition at 10 µM,"IGROV1; IGROV-1, IGROV1 (ovarian cancer), single dose 10 μM, read-out: Growth inhibition percentage (GI %)",18.4%
same,inhibition at 10 µM,"RPMI-8226; RPMI-8226 (leukaemia), single dose 10 μM, read-out: Growth inhibition percentage (GI %)",33%
same,inhibition at 10 µM,TK-10,-28.1%
same,inhibition at 10 µM,SNB-19,1.85%
same,inhibition at 10 µM,HCC-2998,-2.3%
same,inhibition at 10 µM,"LOX IMVI; LOX IMVI (melanoma), single dose 10 μM",0.67%
same,inhibition at 10 µM,"HOP-92; HOP-92 (non-small cell lung cancer), single dose 10 μM, read-out: Growth inhibition percentage (GI %)",8.68%
same,inhibition at 10 µM,"BT-549; BT-549 (breast cancer), single dose 10 μM, read-out: Growth inhibition percentage (GI %)",11.6%
same,inhibition at 10 µM,"COLO 205; COLO 205 (colon cancer), single dose 10 μM, read-out: Growth inhibition percentage (GI %)",37.4%
same,inhibition at 10 µM,"CCRF-CEM; CCRF-CEM (leukaemia), single dose 10 μM",32.8%
same,inhibition at 10 µM,"UACC-62; UACC-62 (melanoma), single dose 10 μM, read-out: Growth inhibition percentage (GI %)",-5.24%
same,inhibition at 10 µM,"MDA-MB-231/ATCC; MDA-MB-231/ATCC (breast cancer), single dose 10 μM, read-out: Growth inhibition percentage (GI %)",3.49%
same,inhibition at 10 µM,"UO-31; UO-31 (renal cancer), single dose 10 μM, read-out: Growth inhibition percentage (GI %)",30.3%
same,inhibition at 10 µM,"NCI/ADR-RES; NCI/ADR-RES (ovarian cancer), single dose 10 μM",8.29%
same,inhibition at 10 µM,"SR; SR (leukaemia), single dose 10 μM",60.2%
same,inhibition at 10 µM,"A498; A498 (renal cancer), single dose 10 μM, read-out: Growth inhibition percentage (GI %)",52%
"O=[N+]([O-])c1cc(/C=N/Nc2nc(N/N=C/c3ccc(Cl)c([N+](=O)[O-])c3)nc(N3CCCCC3)n2)ccc1Cl [compound 7i, 2,4-Bis[(E)-2-[(4-Chloro-3-nitrophenyl)methylidene]hydrazin-1-yl]-6-(piperidin-1-yl)-1,3,5-triazine]",inhibition at 10 µM,"HCT-116; HCT-116, read-out: Growth inhibition percentage (GI %)",78%
same,inhibition at 10 µM,"786-0; 786-0, read-out: Growth inhibition percentage (GI %)",-8.84%
same,Mean GI %,[1],37.38%
same,inhibition at 10 µM,EKVX; EKVX,22%
same,inhibition at 10 µM,"SW-620; SW-620, read-out: Growth inhibition percentage (GI %)",36.3%
same,inhibition at 10 µM,"MDA-MB-468; MDA-MB-468, read-out: Growth inhibition percentage (GI %)",31.2%
same,inhibition at 10 µM,"SK-MEL-2; SK-MEL-2, read-out: Growth inhibition percentage (GI %)",37.8%
same,inhibition at 10 µM,"MDA-MB-435; MDA-MB-435, read-out: Growth inhibition percentage (GI %)",19.3%
same,inhibition at 10 µM,"HCT-15; HCT-15, read-out: Growth inhibition percentage (GI %)",50.3%
same,inhibition at 10 µM,"SF-539; SF-539, read-out: Growth inhibition percentage (GI %)",63.7%
same,inhibition at 10 µM,"SF-295; SF-295, read-out: Growth inhibition percentage (GI %)",6.78%
same,inhibition at 10 µM,"RXF 393; RXF 393, read-out: Growth inhibition percentage (GI %)",0.13%
same,inhibition at 10 µM,"IGROV1; IGROV-1, read-out: Growth inhibition percentage (GI %)",47.2%
same,inhibition at 10 µM,"RPMI-8226; RPMI-8226, read-out: Growth inhibition percentage (GI %)",81.7%
same,inhibition at 10 µM,TK-10,6.2%
same,inhibition at 10 µM,SNB-19,27.4%
same,inhibition at 10 µM,HCC-2998,32.6%
same,inhibition at 10 µM,LOX IMVI; LOX IMVI,34%
same,inhibition at 10 µM,"HOP-92; HOP-92, read-out: Growth inhibition percentage (GI %)",-23.1%
same,inhibition at 10 µM,"BT-549; BT-549, read-out: Growth inhibition percentage (GI %)",2.15%
same,inhibition at 10 µM,"COLO 205; COLO 205, read-out: Growth inhibition percentage (GI %)",-0.27%
same,inhibition at 10 µM,CCRF-CEM; CCRF-CEM,38.7%
same,inhibition at 10 µM,"UACC-62; UACC-62, read-out: Growth inhibition percentage (GI %)",34%
same,inhibition at 10 µM,"MDA-MB-231/ATCC; MDA-MB-231, read-out: Growth inhibition percentage (GI %)",51.7%
same,inhibition at 10 µM,"UO-31; UO-31, read-out: Growth inhibition percentage (GI %)",52.5%
same,inhibition at 10 µM,NCI/ADR-RES; NCI/ADR-RES,69.8%
same,inhibition at 10 µM,SR; SR,36.8%
same,inhibition at 10 µM,"A498; A498, read-out: Growth inhibition percentage (GI %)",-8.06%
